Source: article PMC10587169, “Tuning aminopolycarboxylate chelators for efficient complexation of trivalent actinides” (Scientific Reports, 2023)
Entries after “also recorded” stand apart in the source; their conditions may differ.

How the values were obtained:
[1] = Competitive complexation liquid-liquid extraction with HDEHP; assay type: binding; conditions: competitive solvent extractions, T = 20 ± 1 °C; for logβ101 (ML), Am3+ / logβ101 (ML), Eu3+ / logβ111 (MHL), Am3+ / logβ111 (MHL), Eu3+: I = 2.00 M sodium perchlorate; for logβ101 (ML), Am3+ / logβ101 (ML), Eu3+ / logβ111 (MHL), Am3+ / logβ111 (MHL), Eu3+ / logK111, Am3+ / logK111, Eu3+: ±3σ; for logβ101 (ML), Cm3+: p[H+] variation not monitored
Method: (§1) Stability constants for the coordination of Eu^3+, Am^3+, Cm^3+, and Cf^3+ were also achieved by monitoring the suppression of liquid–liquid partitioning of the radiotracer due to the increasing presence of an aqueous complexant. Aqueous solutions were prepared containing sub-millimolar amounts of ligand while maintaining p[H^+] at 1.7, 1.8, 1.9, 2.0, and 2.1. Ionic strength was maintained at 2.00 M using sodium perchlorate. Aqueous complexation was balanced with the appropriate choice of HDEHP concentration in octane to allow accurate quantification of metal distribution. Non-aqueous phases were pre-equilibrated three times with 2.00 M NaClO4 at the corresponding p[H^+]. Preliminary time-dependent studies indicated the phase transfer equilibrium was attained for all measurements with H4octapa and H4pypa-peg (Figures S2 and S3 in the SI). For the mixtures traced with radioisotopes, the activity was measured using gamma spectroscopy (ORTEC GEM50P4 coaxial HPGe detector, DSPEC gamma spectrometer) for ^154Eu (123.07 keV), ^243Am (74.66 keV), and ^249Cf (388.17 keV) and liquid scintillation counting (Perkin Elmer Tri-Carb 3180 TR/SL) for ^248Cm. The ratio of radioisotope activity in the organic and aqueous phases defined the liquid–liquid distribution.
(§2) Liquid–liquid partitioning of trivalent f-elements was monitored in presence of H4octapa and H4pypa-peg using a strong liquid cation exchanger, bis–(2-ethylhexyl)phosphoric acid, HDEHP. This competitive solvent extraction methodology was used to determine the conditional stability constants for complexation of Eu^3+, Am^3+, Cm^3+, and Cf^3+ with H4octapa and H4pypa-peg. The metals, present at radiotracer concentrations ([…]), distributed between an organic phase containing HDEHP in n-octane and an aqueous phase containing the complexant at varying concentrations and aqueous acidity. The interpretation of the competitive complexation liquid–liquid distribution data (SI Tables S3 through S5 for H4octapa and S6 through S8 for H4pypa-peg) considered two complex formation equilibria as described by Eqs. (4) and (5). All collected distribution data indicated the average ligand-to-metal stoichiometry of 1.00 ± 0.04 for H4octapa and 1.00 ± 0.03 for H4pypa-peg (see SI Figures S10A and S11A). The partitioning of a trivalent metal ion as facilitated by a dimerized HDEHP cation exchanger can be expressed by Eq. (6) as quantified by the extraction constant, Kex (subscript org refers to organic-soluble species).6 M^3++3HDEHP2,org⇆MHDEHP23,org+3H^+Kex=MHDEHP23,orgH^+^3/M^3+HDEHP2,org^3
Substitution of equilibrium and extraction constants Eqs. (3)–(5) into Eq. (6) yields Eq. (8).8 DM=KexHDEHP2,org^3H^+^3/1+β101L^4-+β111L^4-H^+
At constant HDEHP concentration and p[H^+], when the distribution of the metal ion in absence of ligand is labelled as D^0, the liquid–liquid partitioning of the metal will adhere to Eq. (9),9 D^0/DM-1=β^appL^4- where β^app is the apparent stability constant as represented by β ^app = β101 + β111[H^+].
The Figs. 7A for H4octapa and Fig. 7C for H4pypa-peg show representative Eu^3+, Am^3+, and Cf^3+ sets of dependencies collected at constant aqueous acidities to determine β^app constants from the slopes of the error-weighted least-squares regression analyses. Equivalent dependencies were also collected at different p[H^+] conditions to study variation of β^app trends with p[H^+] as presented in Figs. 7B,D for H4octapa and H4pypa-peg, respectively. The distribution plots for Eu^3+, Am^3+, and Cf^3+ for H4pypa-peg clearly show variation with the changing aqueous acidity, which yielded good estimates for the conditional stability constants for the formation of ML^− and MHL(aq) (Table 5). The collected trends for Cf^3+ in the presence of H4octapa vary to a lesser extent, enabling the determination of β101 only. The p[H^+] variation was not monitored for the coordination of ^248Cm^3+ with both APC ligands due to limited availability of this radioisotope. […]

[2] = Solubility in aqueous electrolyte media (observation); assay type: physicochemical
[3] = Competitive complexation liquid-liquid extraction with HDEHP; assay type: binding; conditions: competitive solvent extractions, T = 20 ± 1 °C, ±3σ
Method: as §1, §2
The stoichiometry for the extraction of trivalent metal ion by HDEHP was verified at 2.85 ± 0.03 by slope analysis study using ^249Cf^3+ as representative ion for H4octapa (SI Figure S10B) and 2.78 ± 0.13 for H4pypa-peg (SI Figure S11B). […]

[4] = Spectrophotometric titration; assay type: binding; conditions: I = 2.0 M (Na+/H+)ClO4 at 20.0 °C, not marked potentiometry (spectrophotometric titration)

SMILES | logβ101 (ML), Am3+ [1] | logβ101 (ML), Eu3+ [1] | logβ111 (MHL), Am3+ [1] | logβ111 (MHL), Eu3+ [1] | logβ101 (ML), Cm3+ [1] | logK111, Am3+ [1] | logK111, Eu3+ [1] | solubility in high ionic strength perchlorate media ([2]; aqueous sodium perchlorate electrolyte medium, 2 M (Na+/H+)ClO4) | logβ101 (ML), Cf3+ ([3]; I = 2.00 M sodium perchlorate) | aqueous solubility compared to unfunctionalized H4pypa ([2]; moderately acidic aqueous electrolyte mixtures) | logβ111 (MHL), Cf3+ ([3]; I = 2.00 M sodium perchlorate) | logK111, Cf3+ [3] | logβ121 (MH2L), Nd3+ [4]
O=C(O)CN(CCN(CC(=O)O)Cc1cccc(C(=O)O)n1)Cc1cccc(C(=O)O)n1 [H4octapa, 6,6′-((ethane-1,2-diylbis–((carboxymethyl)azanediyl))bis–(methylene))dipicolinic acid] | 19.3 (6) | 18.59 (2) | – 21.8 (2)^^ | 20.45 (2) | 19.4^^ | – 2.5 (6)^^ | 1.86 (2) | limited; also recorded: Low solubility | 20.6 (2)^^ | – | – | – | –
O=C(O)CN(Cc1cc(-c2cn(CCOCCOCCO)nn2)cc(CN(CC(=O)O)Cc2cccc(C(=O)O)n2)n1)Cc1cccc(C(=O)O)n1 [H4pypa-peg, 6,6'-((((4-(1-(2-(2-(2-hydroxyethoxy)ethoxy)ethyl)-1H-1,2,3-triazol-4-yl)pyridine-2,6-diyl)bis–(methylene))bis–((carboxymethyl)azanediyl))bis–(methylene)) dipicolinic acid] | 19.6 (1)^^ | 18.7 (2) | 21.8 (1)^^ | 20.6 (4) | 19.8 | 2.2 (1)^^ | 1.9 (4) | – | 21.0 (4)^^ | significantly improved aqueous solubility | 23.2 (2)^^ | 2.2 (1)^^ | –
O=C(O)CN(CCN(CCN(CC(=O)O)CC(=O)O)CC(=O)O)CCN(CC(=O)O)CC(=O)O [H6ttha, triethylenetetraamine-N,N,N',N'',N''',N'''-hexaacetic acid] | – | – | – | – | – | – | – | – | – | – | – | – | 27.7(1)
